Laboratory results as given in article PMC4850295, “Using a Genetically Encoded Sensor to Identify Inhibitors of Toxoplasma gondii Ca^2+ Signaling” (The Journal of Biological Chemistry, 2016).
Where “and” joins values, the source holds several entries; their conditions need not be identical. Equal entries are not always repeated.

These molecules were tested on T1, GCaMP5-expressing T. gondii. Settings: 100 uM zaprinast stimulation, 10 min pretreatment, mean of two replicates, 0.23 h, 10 µM.
T1 construct: whole extracellular parasites expressing GCaMP5 Ca2+ sensor
Design: species or system GCaMP5-expressing Toxoplasma gondii, extracellular; GCaMP5 fluorescence (cytosolic Ca2+) after 100 uM zaprinast in compound-pretreated extracellular parasites, background-subtracted, relative to zaprinast alone
How it was run: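 Extracellular GCaMP5-expressing parasites in Ringer's solution were pretreated with compounds (single 10 μM dose, two biological replicates) for 10 min, then stimulated with 100 μM zaprinast at 37 °C for 4 min. Fluorescence read at 485/525 nm, basal subtracted, expressed as fold change relative to zaprinast-only parasites.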

| Compound | fold change in fluorescence relative to zaprinast alone |
| --- | --- |
| NS(=O)(=O)c1cccc(Nc2cc(-c3ccc(F)cc3)n[nH]2)c1 [GW824645A] | 1.167 and 1.492 |

Same assay, conditions: 100 uM zaprinast stimulation; 10 min pretreatment; mean of two replicates; 0.23 h

| Compound | fold change in fluorescence relative to zaprinast alone |
| --- | --- |
| COc1cccc(COc2cc(-n3cnc4ccccc43)sc2C(N)=O)c1 [GW804482X] | 1.105 |
| CC(C)c1ccc(Nc2nccc(-c3cnn4ncccc34)n2)cc1 [GW805758X] | 0.2516 |
| c1cnn2ncc(-c3ccnc(Nc4ccc5c(c4)OCCO5)n3)c2c1 [GW806290X] | -0.04929 |
| CN(c1ccc(NC(=O)Nc2ccc(OC(F)(F)F)cc2)cc1)c1ccnc(Nc2cccc(S(N)(=O)=O)c2)n1 [GW806742X] | 0.4394 |
| CCOc1ccc2c(-c3ccnc(Nc4cc(OC)cc(C(F)(F)F)c4)n3)cnn2n1 [GW807982X] | 0.9255 |
| COc1cccc(-n2nc(C)c3c(N/N=C(\C)c4ccncc4)ncnc32)c1 [GW809885X] | 1.233 |
| CN(c1ccc(NC(=O)Nc2cc(C(F)(F)F)ccc2F)cc1)c1ccnc(Nc2ccc(S(N)(=O)=O)cc2)n1 [GW809893X] | 0.2843 |
| CN(c1ccc(NC(=O)Nc2c(Cl)cccc2Cl)cc1)c1ccnc(Nc2cccc(CS(C)(=O)=O)c2)n1 [GW809897X] | 1.103 |
| CN(C(=O)c1ccc(-c2cc(-c3cn[nH]c3-c3ccccn3)ccn2)cc1)C1CCOCC1 [GW810083X] | 1.114 |
| COc1ccc2c(-c3ccnc(Nc4cccc(OC(F)(F)F)c4)n3)cnn2n1 [GW810372X] | 0.1756 |
| COc1ccc(NC(=O)c2ccoc2)cc1-c1ccc(C(=O)NCC2CC2)cc1 [GW810437X] | 1.267 |
| O=C(NCC1CC1)c1ccc(-c2cc(C(=O)NC3CC3)ccc2F)cc1 [GW810445X] | 1.232 |
| FC(F)(F)c1cc(Br)cc(Nc2nccc(-c3cnn4ncccc34)n2)c1 [GW810578X] | 0.9472 |
| COc1cccc(-n2ncc3c(N/N=C/c4ccc(S(C)(=O)=O)cc4)ncnc32)c1 [GW811168X] | 0.6755 |
| CN(c1ccc2c(c1)nc(NCc1ccccc1)n2C)c1ccnc(Nc2ccc(CS(C)(=O)=O)cc2)n1 [GW811603A] | 1.239 |
| CCOc1ccc2c(-c3ccnc(Nc4cccc(C(F)(F)F)c4)n3)cnn2n1 [GW811761X] | 1.047 |
| O=C(c1ccc(-c2cc(-c3cn[nH]c3-c3ccccn3)ccn2)cc1)N1CCOCC1 [GW812171X] | 1.17 |
| CN(c1ccc2c(c1)nc(NCc1ccc(F)cc1)n2C)c1ccnc(Nc2ccc(CS(C)(=O)=O)cc2)n1 [GW813244A] | 1.154 |
| COc1cccc(-n2cnc3c(N/N=C/c4ccncc4)ncnc32)c1 [GW813360X] | 1.13 |
| COc1cccc(-c2c[nH]c3c(N/N=C/c4ccncc4)ncnc23)c1 [GW814408X] | 0.6391 |
| COc1cccc(-n2ncc3c(N/N=C/c4cccc(F)c4)ncnc32)c1 [GW817394X] | 1.201 |
| COc1cccc(-n2ncc3c(N/N=C/c4ccc(F)cc4)ncnc32)c1 [GW817396X] | 1.185 |

| Compound | fold change in fluorescence relative to zaprinast alone |
| --- | --- |
| CCCNC(=O)Nc1ccc(N(C)c2ccnc(NC3CC3)n2)cc1 [GW818933X] | 0.4908 |
| c1ccc(-c2ccc3c(-c4ccnc(Nc5ccc6c(c5)OCCO6)n4)cnn3n2)cc1 [GW818941X] | 0.7769 |
| FC(F)(F)c1cccc(Nc2nccc(-c3cnn4nc(-c5ccccc5)ccc34)n2)c1 [GW819077X] | 0.1467 |
| Cc1ccc(-c2cc3c(NC(=O)C4CC4)ncnc3o2)cc1 [GW819230X] | 1.19 |
| Cc1ccc2c(-c3ccnc(Nc4ccc(C(F)(F)F)cc4)n3)cnn2n1 [GW819776X] | 1.244 |
| Cc1ccc(C(=O)NC2CC2)cc1-c1ccc2[nH]ncc2c1 [GW820759X] | 1.265 |
| O=C(NCc1cccs1)c1cc(C(=O)c2c(Cl)cccc2Cl)c[nH]1 [GW823670X] | 1.033 |
| COc1ccc(-c2nn3ncccc3c2-c2ccnc(Nc3cccc(C(F)(F)F)c3)n2)cc1 [GW827105X] | 0.7957 |
| COc1ccc(-c2nn3ncccc3c2-c2ccnc(Nc3ccc4c(c3)OCCO4)n2)cc1 [GW827106X] | 0.9888 |
| CN1CCN(Cc2ccc(NC(=O)Nc3ccc(N(C)c4ccnc(Nc5ccc(CS(C)(=O)=O)cc5)n4)cc3)cc2)CC1 [GW827654A] | 1.248 |
| FC(F)(F)c1ccc(-c2nn3ncccc3c2-c2ccnc(Nc3cccc(C(F)(F)F)c3)n2)cc1 [GW828205X] | 0.4128 |
| FC(F)(F)c1ccc(-c2nn3ncccc3c2-c2ccnc(Nc3ccccc3)n2)cc1 [GW828206X] | 0.303 |
| Clc1ccc(-c2nn3ncccc3c2-c2ccnc(Nc3ccccc3)n2)cc1 [GW829055X] | 1.188 |
| Fc1ccc(Nc2nccc(-c3c(-c4ccc(Cl)cc4)nn4ncccc34)n2)cc1F [GW829058X] | 1.046 |
| Clc1ccc(-c2nn3ncccc3c2-c2ccnc(Nc3ccc4c(c3)OCCO4)n2)cc1 [GW829116X] | 0.6156 |
| FC(F)(F)c1ccc(-c2nn3ncccc3c2-c2ccnc(Nc3ccc(Cl)c(C(F)(F)F)c3)n2)cc1 [GW829350X] | 0.9679 |
| FC(F)(F)c1cc(Nc2nccc(-c3c(-c4ccc(Cl)cc4)nn4ncccc34)n2)ccc1Cl [GW829351X] | 0.8408 |
| COc1cccc(/C=N/Nc2ncnc3c2cnn3-c2cccc(OC)c2)c1 [GW829874X] | 1.214 |
| COc1cccc(-n2ncc3c(N/N=C/c4ccc(C)cc4)ncnc32)c1 [GW829877X] | 1.18 |
| CN1CCN(C(=O)c2ccc(NC(=O)Nc3ccc(N(C)c4ccnc(Nc5ccc(CS(C)(=O)=O)cc5)n4)cc3)cc2)CC1 [GW830263A] | 1.245 |
| CN(c1ccc(NC(=O)NCCN2CCOCC2)cc1)c1ccnc(Nc2ccc(CS(C)(=O)=O)cc2)n1 [GW830365A] | 1.217 |
| CN(c1ccc(NC(=O)Nc2cccc(Cl)c2)cc1)c1ccnc(N)n1 [GW830707A] | 0.7635 |

| Compound | fold change in fluorescence relative to zaprinast alone |
| --- | --- |
| CN(c1ccc(NC(=O)N2CCN(CCCN3CCOCC3)CC2)cc1)c1ccnc(Nc2ccc(CS(C)(=O)=O)cc2)n1 [GW830899A] | 1.092 |
| CN(C)CCNC(=O)Nc1ccc(N(C)c2ccnc(Nc3ccc(CS(C)(=O)=O)cc3)n2)cc1 [GW830900A] | 1.233 |
| NS(=O)(=O)c1ccc(Nc2cc(-c3cccc(O)c3)n[nH]2)cc1 [GW831090X] | 1.167 |
| NS(=O)(=O)c1ccc(Nc2cc(-c3ccc(O)c(F)c3)n[nH]2)cc1 [GW831091X] | 1.195 |
| Cc1ccc2c(-c3ccnc(Nc4ccc5c(c4)OCCO5)n3)c(-c3ccc(C(F)(F)F)cc3)nn2n1 [GW832467X] | 0.6662 |
| CN(C)CCOc1ccc(-c2cc(-c3cn[nH]c3-c3ccccn3)ccn2)cc1 [GW835314X] | 0.7262 |
| COc1cc(Nc2ncc3c(C)nc(-c4cccc(C(F)(F)F)c4)n3n2)cc(OC)c1OC [GW837331X] | 0.3788 |
| Cc1ccc(-n2nc(C(C)(C)C)cc2NC(=O)Nc2ccc(OCCN3CCOCC3)c3ccccc23)cc1 [GW839464X] | 1.059 |
| COc1cc2ncn(-c3cc(OCc4ccccc4C(F)(F)F)c(C(N)=O)s3)c2cc1OC [GW843682X] | 1.213 |
| NC(=O)c1sc(-n2cnc3ccc(C(F)(F)F)cc32)cc1OCc1ccccc1Br [GW853606X] | 1.175 |
| CC(C)(C)c1ccc2nccc(Nc3cccc(O)c3)c2c1 [GW856795X] | 0.1562 |
| Nc1ncc(-c2cccc(S(N)(=O)=O)c2)c2scc(-c3ccc(F)c(Cl)c3)c12 [GW856804X] | 0.8933 |
| Cc1ccc(O)cc1Nc1ccnc2ccc(C(C)(C)C)cc12 [GW856805X] | 0.3414 |
| COc1cc(Nc2ncc3c(C)nc(-c4cccc(Oc5ccccc5)c4)n3n2)cc(OC)c1OC [GW861893X] | 0.7386 |
| COc1cc(Nc2ncc3c(C)nc(-c4cc5ccccc5[nH]4)n3n2)cc(OC)c1OC [GW869516X] | 0.08874 |
| Cc1cccc(-c2nc(Nc3ccncc3)c3sccc3n2)n1 [GW869641X] | 1.179 |
| O=C(O[C@H]1CN[C@H](C#Cc2cc3ncnc(Nc4ccc(OCc5cccc(F)c5)c(Cl)c4)c3s2)C1)N1CCOCC1 [GW869810X] | 1.08 |
| Clc1cccc(-c2nc(Nc3ccncc3)c3ccccc3n2)c1 [GW873004X] | 1.301 |
| Cc1nc(-c2ccccc2)n2nc(NCCCN3CCOCC3)ncc12 [GW874091X] | 1.267 |
| Cc1cccc(-c2nc(Nc3cccc(C(N)=O)c3)c3ccccc3n2)n1 [GW876019X] | 1.051 |
| Fc1ccc(-c2ncn(CCCN3CCOCC3)c2-c2ccncc2)cc1 [SB-210313] | 1.039 |
| Fc1ccc(-c2ncn(CCCNCc3ccccc3)c2-c2ccncc2)cc1 [SB-210486] | 0.7327 |
